Structures can show the parent of a compound that is named as a salt. Where two headings read alike, the source gives them in different places.
System: HIV-1 (JRCSF)
Test: Anti-HIV activity in MaRBLE cells infected with HIV-1 (JRCSF), luciferase readout
Assay type: cell-based
Conditions: read-out: Anti-HIV activity IC50
Procedure: This test was conducted with reference to Journal of Clinical Microbiology, 2007, Vol. 45, p. 477-487.
The anti-HIV activity was evaluated using MaRBLE cells in which a luciferase gene to be expressed under the control of HIV-1 LTR and a CCR5 gene, etc. were introduced in human T lymphocyte-derived HPB-M(a).
A fresh medium or each appropriately diluted test compound was dispensed to 96-well plates to prepare drug solution-containing plates.
The MaRBLE cells were suspended in RPMI1640 containing 10% FCS (fetal calf serum) and penicillin/streptomycin and infected with HIV-1 (JRCSF). Then, the cells were inoculated to the drug solution-containing plates (1×10^5 cells/well). The same number of uninfected cells were inoculated as a control group to the drug solution-containing plates.
After culture at 37° C. for 7 days in a 5% CO2 atmosphere, the intracellular luciferase activity was measured using Steady-Glo Luciferase assay system (Promega Corp.).
The rate of viral proliferation was determined according to the following expression:
Rate of viral proliferation(%)=(A/B)×100
A=(Firefly luciferase activity of the compound-supplemented well)−(Firefly luciferase activity of the uninfected cells)
B=(Firefly luciferase activity of the compound-free well)−(Firefly luciferase activity of the uninfected cells)
IC50 of the compound was calculated by a plot with concentration as the logarithm and the rate of viral proliferation as the real part using the FORECAST function (linear regression method) of Microsoft Office Excel 2003.

[1] = Human immunodeficiency virus 1, 168 h, MaRBLE cells (human T lymphocyte-derived HPB-M(a)) infected with HIV-1 (JRCSF), 7 days culture, rate of viral proliferation by luciferase activity

Structure (SMILES)	IC50 [1] [nM]	also measured
COc1ncccc1CNc1cc(=O)n(O)c2ncnc(C)c12 [Example 157, 8-hydroxy-5-(((2-methoxypyridin-3-yl)methyl)amino)-4-methylpyrido[2,3-d]pyrimidin-7(8H)-one]	44	–
Cc1ncnc2c1c(NCc1ccc(Oc3ccccc3)nc1)cc(=O)n2O [Example 146, 8-hydroxy-4-methyl-5-(((6-phenoxypridin-3-yl)methyl)amino)pyrido[2,3-d]pyrimidin-7(8H)-one]	–	IC50 (MaRBLE cells (human T lymphocyte-derived HPB-M(a)) infected with HIV-1 (JRCSF), 7 days culture, rate of viral proliferation by luciferase activity): 100 nM
Cc1ncnc2c1c(NCc1cccnc1N1CCOCC1)cc(=O)n2O [Example 57, 8-hydroxy-4-methyl-5-(((2-(morpholin-4-yl)pyridin-3-yl)methyl)amino)pyrido[2,3-d]pyrimidin-7(8H)-one]	85	–
Cc1ncnc2c1c(NCc1ncc[nH]1)cc(=O)n2O [Example 154, 8-hydroxy-5-(((1H-imidazol-2-yl)methyl)amino)-4-methylpyrido[2,3-d]pyrimidin-7(8H)-one]	720	–
Cc1ncnc2c1c(NC(C)c1cccnc1)cc(=O)n2O (stereo not shown) [Example 53, 8-hydroxy-4-methyl-5-((1-(pyridin-3-yl)ethyl)amino)pyrido[2,3-d]pyrimidin-7(8H)-one]	80	–
Cc1ncnc2c1c(NCc1ccccc1C(F)(F)F)cc(=O)n2O [Example 149, 8-hydroxy-4-methyl-5-((2-(trifluoromethyl)benzyl)amino)pyrido[2,3-d]pyrimidin-7(8H)-one]	26	–
Cc1ncnc2c1c(NCc1cccnc1OCC(F)(F)F)cc(=O)n2O [Example 147, 8-hydroxy-4-methyl-5-(((2-(2,2,2-trifluoroethoxy)pyridin-3-yl)methyl)amino)pyrido[2,3-d]pyrimidin-7(8H)-one]	83	–
Cc1ncnc2c1c(NCc1ccc(CN)cc1)cc(=O)n2O [Example 134]	140	–
O=c1cc(NCc2ccc(-c3ccccc3)cc2)c2cncnc2n1O [Example 97, 5-(((biphenyl-4-yl)methyl)amino)-8-hydroxypyrido[2,3-d]pyrimidin-7(8H)-one]	200	–
Cc1ncnc2c1c(NCc1ccc3[nH]ccc3c1)cc(=O)n2O [Example 93, 8-hydroxy-5-(((1H-indol-5-yl)methyl)amino)-4-methylpyrido[2,3-d]pyrimidin-7(8H)-one]	45	–
Cc1ccncc1CNc1cc(=O)n(O)c2ncnc(C)c12 [Example 54, 8-hydroxy-4-methyl-5-(((4-methylpyridin-3-yl)methyl)amino)pyrido[2,3-d]pyrimidin-7(8H)-one]	110	–
Cc1ncnc2c1c(NCc1ccc(OCCO)cc1)cc(=O)n2O [Example 144, 8-hydroxy-5-((4-(2-hydroxyethoxy)benzyl)amino)-4-methylpyrido[2,3-d]pyrimidin-7(8H)-one]	90	–
Cc1ncnc2c1c(NCc1cccc(CN(C)C)c1)cc(=O)n2O [Example 143, 5-((3-((dimethylamino)methyl)benzyl)amino)-8-hydroxy-4-methylpyrido[2,3-d]pyrimidin-7(8H)-one]	120	–
CC(Nc1cc(=O)n(O)c2ncncc12)c1ccccc1 (stereo not shown) [Example 7, 8-hydroxy-5-((1-phenylethyl)amino)pyrido[2,3-d]pyrimidin-7(8H)-one]	170	–
Cc1ncnc2c1c(NCCCN(C)C)cc(=O)n2O [Example 155, 5-((3-(dimethylamino)propyl)amino)-8-hydroxy-4-methylpyrido[2,3-d]pyrimidin-7(8H)-one hydrochloride]	–	IC50 (Human immunodeficiency virus 1, 168 h): 230 nM
COc1ccc(CNc2cc(=O)n(O)c3ncnc(C)c23)cn1 [Example 158, 8-hydroxy-5-(((2-methoxypyridin-5-yl)methyl)amino)-4-methylpyrido[2,3-d]pyrimidin-7(8H)-one]	74	–
COc1ccc(CNc2cc(=O)n(O)c3ncnc(C)c23)cc1 [Example 32, 8-hydroxy-5-((4-methoxybenzyl)amino)-4-methylpyrido[2,3-d]pyrimidin-7(8H)-one]	29	–
Cc1ncnc2c1c(NC(c1ccccc1)c1ccccc1)cc(=O)n2O [Example 59, 5-((diphenylmethyl)amino)-8-hydroxy-4-methylpyrido[2,3-d]pyrimidin-7(81-1)-one]	160	–
Cc1ccc(CNc2cc(=O)n(O)c3ncnc(C)c23)cc1 [Example 43, 8-hydroxy-4-methyl-5-((4-methylbenzyl)amino)pyrido[2,3-d]pyrimidin-7(8H)-one]	39	–
O=c1cc(NCc2cccnc2)c2cncnc2n1O [Example 18, 8-hydroxy-5-((pyridin-3-ylmethyl)amino)pyrido[2,3-d]pyrimidin-7(8H)-one]	230	–
Cc1ncnc2c1c(NCc1ccc(C(F)(F)F)nc1)cc(=O)n2O [Example 83, 8-hydroxy-4-methyl-5-(((6-(trifluoromethyl)pyridin-3-yl)methyl)amino)pyrido[2,3-d]pyrimidine-7(8H)-one]	370	–
Cc1ncnc2c1c(NCc1cncc(F)c1)cc(=O)n2O [Example 51, 5-(((5-fluoropyridin-3-yl)methyl)amino)-8-hydroxy-4-methylpyrido[2,3-d]pyrimidin-7(8H)-one]	97	–
Cc1ncnc2c1c(NCc1ccc3c(c1)OCCO3)cc(=O)n2O [Example 52, 5-(((2,3-dihydro-1,4-benzodioxin-6-yl)methyl)amino)-8-hydroxy-4-methylpyrido[2,3-d]pyrimidin-7(8H)-one]	20	–
Cc1ncnc2c1c(NCc1ccc(C#N)cc1)cc(=O)n2O [Example 42, 4-(((8-hydroxy-4-methyl-7-oxo-7,8-dihydropyrido[2,3-d]pyrimidin-5-yl)amino)methyl)benzonitrile]	72	–
Cc1ncnc2c1c(NCc1ccc(N3CCCCC3)nc1)cc(=O)n2O [Example 56, 8-hydroxy-4-methyl-5-(((6-(piperidin-1-yl)pyridin-3-yl)methyl)amino)pyrido[2,3-d]pyrimidin-7(8H)-one]	900	–
Cc1ncnc2c1c(NCc1ccc(Cl)cc1)cc(=O)n2O [Example 44, 5-((4-chlorobenzyl)amino)-8-hydroxy-4-methylpyrido[2,3-d]pyrimidin-7(8H)-one]	29	–

Second part, led by results:

IC50 [1] [nM]	Structure (SMILES)	also measured
28	Cc1ncnc2c1c(NCc1ccccc1O)cc(=O)n2O [Example 112, 8-hydroxy-5-((2-hydroxybenzyl)amino)-4-methylpyrido[2,3-d]pyrimidin-7(8H)-one]	–
31	Cc1ncnc2c1c(NCCc1ccccn1)cc(=O)n2O [Example 92, 8-hydroxy-4-methyl-5-((2-(pyridin-2-yl)ethyl)amino)pyrido[2,3-d]pyrimidin-7(8H)-one]	–
870	O=C(NCc1ccccc1)c1ncnc2c1c(O)cc(=O)n2O [Example 63, N-benzyl-5,8-dihydroxy-7-oxo-7,8-dihydropyrido[2,3-d]pyrimidine-4-carboxamide]	–
120	O=c1cc(NCc2ccccc2)c2cncnc2n1O [Example 2, 5-(benzylamino)-8-hydroxypyrido[2,3-d]pyrimidin-7(8H)-one]	–
8.4	Cc1ncnc2c1c(O)c(C(=O)NCc1ccccc1)c(=O)n2O [Example 111, N-benzyl-5,8-dihydroxy-4-methyl-7-oxo-7,8-dihydropyrido[2,3-d]pyrimidine-6-carboxamide]	–
210	Cc1ncnc2c1c(NCc1cccc(CN)c1)cc(=O)n2O [Example 132, 5-((3-(aminomethyl)benzyl)amino)-8-hydroxy-4-methylpyrido[2,3-d]pyrimidin-7(8H)-one]	–
58	Cc1ncnc2c1c(NCc1cnc3ccccc3c1)cc(=O)n2O [Example 124, 8-hydroxy-4-methyl-5-(((quinolin-3-yl)methyl)amino)pyrido[2,3-d]pyrimidin-7(8H)-one]	–
570	O=c1cc(O)c2c(NCCc3ccccc3)ncnc2n1O [Example 80, 5,8-dihydroxy-4-((2-phenylethyl)amino)pyrido[2,3-d]pyrimidine-7(8H)-one]	–
490	O=c1cc(O)c2c(-c3ccccc3)ncnc2n1O [Example 61, 5,8-dihydroxy-4-phenylpyrido[2,3-d]pyrimidin-7(8H)-one]	–
64	O=C(NCc1ccccc1)c1c(O)c2cncnc2n(O)c1=O [Example 105, N-benzyl-5,8-dihydroxy-7-oxo-7,8-dihydropyrido[2,3-d]pyrimidine-6-carboxamide]	–
80	Cc1ncnc2c1c(NCc1cccnc1)cc(=O)n2O [Example 106, 8-hydroxy-4-methyl-5-(((pyridin-3-yl)methyl)amino)pyrido[2,3-d]pyrimidin-7(8H)-one]	–
350	Cc1ncnc2c1c(O)c(-c1ccccc1)c(=O)n2O [Example 64, 5,8-dihydroxy-4-methyl-6-phenylpyrido[2,3-d]pyrimidin-7(8H)-one]	–
86	Cc1ncnc2c1c(NCc1ccccc1F)cc(=O)n2O [Example 36, 5-((2-fluorobenzyl)amino)-8-hydroxy-4-methylpyrido[2,3-d]pyrimidin-7(8H)-one]	–
300	O=C(NCc1ccccc1)c1c(O)c2c(NCc3ccccc3)ncnc2n(O)c1=O [Example 78, N-benzyl-4-(benzylamino)-5,8-dihydroxy-7-oxo-7,8-dihydropyrido[2,3-d]pyrimidine-6-carboxamide]	–

Reference: patent publication US20150018546A1, “HETEROCYCLIC COMPOUND HAVING ANTI-HIV ACTIVITY” (TOYAMA CHEMICAL CO., LTD., priority 2012, published 2015)
